≈ marks a conversion by molar mass, not a printed value.

Experimental findings from ChEMBL document CHEMBL5370617, “Identification of a 1,2,4-Oxadiazole with Potent and Specific Activity against Clostridioides difficile, the Causative Bacterium of C. difficile Infection, an Urgent Public Health Threat” (2023) are described below.

Holding throughout (assay type): functional
Conditions in all cases: time 24-48 hrs

Experiment [1] concerns Clostridioides difficile. Briefly: Antibacterial activity against Clostridioides difficile ATCC 43255 assessed as bacterial growth inhibition measured at 24 to 48 hrs.
The subject of experiment [2] is Clostridioides difficile. Description: Antibacterial activity against Clostridioides difficile assessed as bacterial growth inhibition measured at 24 to 48 hrs.
Experiment [3] deals with Clostridioides difficile. Briefly: Antibacterial activity against multi drug resistant Clostridioides difficile assessed as bacterial growth inhibition measured at 24 to 48 hrs.
For experiment [4], the system named is Clostridioides difficile. Briefly: Antibacterial activity against drug sensitive Clostridioides difficile assessed as bacterial growth inhibition measured at 24 to 48 hrs.

In the case of `FC(F)(F)c1ccc(Oc2ccc(-c3noc(-c4ccc5[nH]ccc5c4)n3)cc2)cc1`, the MIC in experiment [1] was determined as 4 µg/mL (≈ 9.49 µM).

As for `Oc1ccc(-c2nc(-c3ccc(OC4CCCC4)cc3)no2)cc1`, the minimum inhibitory concentration (MIC) in experiment [1] stood at 2 µg/mL (≈ 6.2 µM). Turning to `O=[N+]([O-])c1cn(CCO)c(-c2nc(-c3ccc(OC4CCCC4)cc3)no2)n1`, in experiment [2], the MIC is more than 128 µg/mL. `O=[N+]([O-])c1c[nH]c(-c2nc(-c3ccc(OC4CCCC4)cc3)no2)n1`: the MIC90 in experiment [3] and in experiment [4] was 1 µg/mL (≈ 2.93 µM) in each case. In experiment [1], the MIC turned out to be 0.25 µg/mL (≈ 0.732 µM). In the case of `Cn1c(-c2nc(-c3ccc(OC4CCCC4)cc3)no2)cnc1[N+](=O)[O-]`, the minimal inhibitory concentration (MIC) in experiment [2] worked out at 32 µg/mL (≈ 90.1 µM). On the same count and under the same terms, to `Cc1ncc([N+](=O)[O-])n1CCO` [METRONIDAZOLE] belongs 0.25 µg/mL (≈ 1.46 µM).

As a reminder, the MIC is the smallest concentration in the dilution series that meets the test's criterion for growth inhibition. The MIC90 is an inhibitory concentration at the 90% level, which refers to growth in some studies and to a panel of isolates in others.
